# Assay results taken from ChEMBL document CHEMBL1201862, “PubChem BioAssay data set” (2004).
#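 48-hour exposure; five concentrations; linearly interpolated endpoints. Here, GI50 denotes the concentration required for 50% inhibition of growth.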 Activity calls are given as the source filed them. No stated cut-off is given here; in the data, active = GI50 up to about 1.1 µM and inactive = higher.
# Columns and labels:
# Experiment in all cases: growth of human tumour cells (NCI), 48 h
# NCI-H226 = test system: NCI-H226
# SF-539 = test system: SF-539
# OVCAR-4 = test system: OVCAR-4
# 786-0 = test system: 786-0
# IGROV-1 = test system: IGROV-1
# NCI-H23 = test system: NCI-H23
# COLO 205 = test system: COLO 205
# SK-MEL-5 = test system: SK-MEL-5
# Hs-578T = test system: Hs-578T
# TK-10 = test system: TK-10
# HL-60 = test system: HL-60
# ACHN = test system: ACHN
# HOP-92 = test system: HOP-92
# U-251 = test system: U-251
# SK-MEL-28 = test system: SK-MEL-28
# A549 = test system: A549
# SF-295 = test system: SF-295
# RPMI-8226 = test system: RPMI-8226
# MOLT-4 = test system: MOLT-4
# SW-620 = test system: SW-620
# MDA-MB-231 = test system: MDA-MB-231
# OVCAR-8 = test system: OVCAR-8
# LOX IMVI = test system: LOX IMVI
# CAKI-1 = test system: CAKI-1
# T47D = test system: T47D
# UO-31 = test system: UO-31
# SR = test system: SR
# M14 = test system: M14
# MDA-N = test system: MDA-N
# K562 = test system: K562
# UACC-257 = test system: UACC-257
# HT-29 = test system: HT-29
# UACC-62 = test system: UACC-62
# NCI-H522 = test system: NCI-H522
# CCRF-CEM = test system: CCRF-CEM
# OVCAR-3 = test system: OVCAR-3
# DU-145 = test system: DU-145
# KM12 = test system: KM12
# HOP-62 = test system: HOP-62
# HCT-116 = test system: HCT-116
# EKVX = test system: EKVX
# A498 = test system: A498
# SK-OV-3 = test system: SK-OV-3
# PC-3 = test system: PC-3
# BT-549 = test system: BT-549
# NCI/ADR-RES = test system: NCI/ADR-RES
# SN12C = test system: SN12C
# NCI-H460 = test system: NCI-H460
# MDA-MB-435 = test system: MDA-MB-435
# SNB-19 = test system: SNB-19
# SF-268 = test system: SF-268
# Malme-3M = test system: Malme-3M
# HCC 2998 = test system: HCC 2998
# HCT-15 = test system: HCT-15
# MCF7 = test system: MCF7
# RXF 393 = test system: RXF 393
# OVCAR-5 = test system: OVCAR-5
# SK-MEL-2 = test system: SK-MEL-2
# SNB-75 = test system: SNB-75
smiles,measurement,setting,value
O=[N+]([O-])/C(C(Cl)=C(Cl)Cl)=C(/Nc1ccccc1)Sc1ccccc1,GI50,NCI-H226,23 µM (inactive)
same,GI50,SF-539,24.9 µM (inactive)
same,GI50,OVCAR-4,19.7 µM (inactive)
same,GI50,786-0,21.7 µM (inactive)
same,GI50,IGROV-1,19.9 µM (inactive)
same,GI50,NCI-H23,18.7 µM (inactive)
same,GI50,COLO 205,18.5 µM (inactive)
same,GI50,SK-MEL-5,20.3 µM (inactive)
same,GI50,Hs-578T,40.4 µM (inactive)
same,GI50,TK-10,27.7 µM (inactive)
same,GI50,HL-60,20.6 µM (inactive)
same,GI50,ACHN,19.1 µM (inactive)
same,GI50,HOP-92,32.8 µM (inactive)
same,GI50,U-251,14.6 µM (inactive)
same,GI50,SK-MEL-28,19.7 µM (inactive)
same,GI50,A549,23.4 µM (inactive)
same,GI50,SF-295,16.5 µM (inactive)
same,GI50,RPMI-8226,32.6 µM (inactive)
same,GI50,MOLT-4,19.8 µM (inactive)
same,GI50,SW-620,25.1 µM (inactive)
same,GI50,MDA-MB-231,15.7 µM (inactive)
same,GI50,OVCAR-8,17.7 µM (inactive)
same,GI50,LOX IMVI,15.7 µM (inactive)
same,GI50,CAKI-1,13.5 µM (inactive)
same,GI50,T47D,19.7 µM (inactive)
same,GI50,UO-31,14 µM (inactive)
same,GI50,SR,20.7 µM (inactive)
same,GI50,M14,19.8 µM (inactive)
same,GI50,MDA-N,24.9 µM (inactive)
same,GI50,K562,20.6 µM (inactive)
same,GI50,UACC-257,16.6 µM (inactive)
same,GI50,HT-29,22.6 µM (inactive)
same,GI50,UACC-62,19.9 µM (inactive)
same,GI50,NCI-H522,16.2 µM (inactive)
same,GI50,CCRF-CEM,16.8 µM (inactive)
same,GI50,OVCAR-3,15.7 µM (inactive)
same,GI50,DU-145,21.1 µM (inactive)
same,GI50,KM12,18.2 µM (inactive)
same,GI50,HOP-62,19.5 µM (inactive)
same,GI50,HCT-116,18.5 µM (inactive)
same,GI50,EKVX,19.6 µM (inactive)
same,GI50,A498,20.8 µM (inactive)
same,GI50,SK-OV-3,20.1 µM (inactive)
same,GI50,PC-3,18.5 µM (inactive)
same,GI50,BT-549,25.5 µM (inactive)
same,GI50,NCI/ADR-RES,24.4 µM (inactive)
same,GI50,SN12C,26.9 µM (inactive)
same,GI50,NCI-H460,18.4 µM (inactive)
same,GI50,MDA-MB-435,18.1 µM (inactive)
same,GI50,SNB-19,17.5 µM (inactive)
same,GI50,SF-268,14 µM (inactive)
same,GI50,Malme-3M,15.9 µM (inactive)
same,GI50,HCC 2998,18.5 µM (inactive)
same,GI50,HCT-15,19.8 µM
same,GI50,MCF7,28.5 µM (inactive)
same,GI50,RXF 393,19.8 µM (inactive)
CC(C)C(OC(=O)c1ccc(NCc2cc(O)ccc2O)cc1)C(C)C,GI50,NCI-H226,1.29 µM (inactive)
same,GI50,SF-539,1.09 µM (active)
same,GI50,OVCAR-4,1.47 µM (inactive)
same,GI50,786-0,1.14 µM (inactive)
same,GI50,IGROV-1,0.855 µM (active)
same,GI50,NCI-H23,1.89 µM (inactive)
same,GI50,COLO 205,0.865 µM (active)
same,GI50,SK-MEL-5,2.2 µM (inactive)
same,GI50,Hs-578T,1.02 µM (active)
same,GI50,TK-10,1.66 µM (inactive)
same,GI50,HL-60,0.135 µM (active)
same,GI50,ACHN,1.02 µM (active)
same,GI50,OVCAR-5,2.09 µM (inactive)
same,GI50,HOP-92,0.424 µM (active)
same,GI50,U-251,1.14 µM (inactive)
same,GI50,SK-MEL-2,2.35 µM (inactive)
same,GI50,SNB-75,0.746 µM (active)
same,GI50,SK-MEL-28,1.45 µM (inactive)
same,GI50,A549,5.77 µM (inactive)
same,GI50,SF-295,3.74 µM (inactive)
same,GI50,RPMI-8226,0.194 µM (active)
same,GI50,MOLT-4,0.243 µM (active)
same,GI50,SW-620,1.96 µM (inactive)
same,GI50,MDA-MB-231,2.07 µM (inactive)
same,GI50,OVCAR-8,1.4 µM (inactive)
same,GI50,LOX IMVI,0.776 µM (active)
same,GI50,CAKI-1,0.218 µM (active)
same,GI50,T47D,0.871 µM (active)
same,GI50,UO-31,1.17 µM (inactive)
same,GI50,SR,0.617 µM (active)
same,GI50,M14,2.28 µM (inactive)
same,GI50,MDA-N,2.39 µM (inactive)
same,GI50,K562,1.29 µM (inactive)
same,GI50,UACC-257,1.39 µM (inactive)
same,GI50,HT-29,3.34 µM (inactive)
same,GI50,UACC-62,1.29 µM (inactive)
same,GI50,NCI-H522,0.16 µM (active)
same,GI50,CCRF-CEM,0.102 µM (active)
same,GI50,OVCAR-3,1.36 µM (inactive)
same,GI50,DU-145,7.01 µM (inactive)
same,GI50,KM12,2.6 µM (inactive)
same,GI50,HOP-62,7.94 µM (inactive)
same,GI50,HCT-116,2.76 µM (inactive)
same,GI50,EKVX,1.81 µM (inactive)
same,GI50,A498,2.25 µM (inactive)
same,GI50,PC-3,1.32 µM (inactive)
same,GI50,BT-549,0.547 µM (active)
same,GI50,NCI/ADR-RES,1.42 µM (inactive)
same,GI50,SN12C,2.42 µM (inactive)
same,GI50,NCI-H460,3.5 µM (inactive)
same,GI50,MDA-MB-435,1.29 µM (inactive)
same,GI50,SNB-19,1.29 µM (inactive)
same,GI50,SF-268,1.87 µM (inactive)
same,GI50,Malme-3M,1.77 µM (inactive)
same,GI50,HCC 2998,2.96 µM (inactive)
same,GI50,HCT-15,0.317 µM
same,GI50,MCF7,2.87 µM (inactive)
same,GI50,RXF 393,0.479 µM (active)
CCOC(=O)c1nc2ccc(C(F)(F)F)cc2nc1Nc1ccc(Cl)c(Cl)c1,GI50,SF-539,69.7 µM (inactive)
same,GI50,786-0,75.3 µM (inactive)
same,GI50,IGROV-1,> 100 µM (inactive)
same,GI50,NCI-H23,> 100 µM (inactive)
same,GI50,COLO 205,> 100 µM (inactive)
same,GI50,SK-MEL-5,> 100 µM (inactive)
same,GI50,Hs-578T,97.3 µM (inactive)
same,GI50,TK-10,> 100 µM (inactive)
same,GI50,HL-60,95.7 µM (inactive)
same,GI50,ACHN,97.1 µM (inactive)
same,GI50,OVCAR-5,> 100 µM (inactive)
same,GI50,HOP-92,> 100 µM (inactive)
same,GI50,SNB-75,48.8 µM (inactive)
same,GI50,SK-MEL-28,> 100 µM (inactive)
same,GI50,A549,67.8 µM (inactive)
same,GI50,SF-295,30.3 µM (inactive)
same,GI50,RPMI-8226,> 100 µM (inactive)
same,GI50,MOLT-4,> 100 µM (inactive)
same,GI50,SW-620,> 100 µM (inactive)
same,GI50,MDA-MB-231,60 µM (inactive)
same,GI50,OVCAR-8,74.5 µM (inactive)
same,GI50,LOX IMVI,> 100 µM (inactive)
same,GI50,CAKI-1,57.1 µM (inactive)
same,GI50,T47D,> 100 µM (inactive)
same,GI50,UO-31,> 100 µM (inactive)
same,GI50,SR,75.3 µM (inactive)
same,GI50,M14,79.8 µM (inactive)
same,GI50,MDA-N,96.8 µM (inactive)
same,GI50,K562,39.4 µM (inactive)
same,GI50,UACC-257,> 100 µM (inactive)
same,GI50,HT-29,> 100 µM (inactive)
same,GI50,UACC-62,> 100 µM (inactive)
same,GI50,NCI-H522,> 100 µM (inactive)
same,GI50,CCRF-CEM,86.1 µM (inactive)
same,GI50,OVCAR-3,38.3 µM (inactive)
same,GI50,DU-145,70.6 µM (inactive)
same,GI50,KM12,75.9 µM (inactive)
same,GI50,HOP-62,27.5 µM (inactive)
same,GI50,HCT-116,64.7 µM (inactive)
same,GI50,EKVX,> 100 µM (inactive)
same,GI50,A498,> 100 µM (inactive)
same,GI50,SK-OV-3,> 100 µM (inactive)
same,GI50,PC-3,> 100 µM (inactive)
same,GI50,BT-549,> 100 µM (inactive)
same,GI50,NCI/ADR-RES,> 100 µM (inactive)
same,GI50,SN12C,> 100 µM (inactive)
same,GI50,NCI-H460,> 100 µM (inactive)
same,GI50,MDA-MB-435,> 100 µM (inactive)
same,GI50,SNB-19,42.5 µM (inactive)
same,GI50,SF-268,> 100 µM (inactive)
same,GI50,Malme-3M,> 100 µM (inactive)
same,GI50,HCC 2998,39.5 µM (inactive)
same,GI50,HCT-15,94.4 µM
same,GI50,MCF7,> 100 µM (inactive)
same,GI50,RXF 393,> 100 µM (inactive)
